Measurements: patent US20100003217A1, “Compounds and Pharmaceutical Compositions for the Treatment of Viral Infections” (priority 2008, published 2010)
Several values for one entry are separate records, joined by “and”; a condition that tells them apart may be missing. Identical values can stand only once.

Tested on: human primary hepatocytes
Test: Metabolic disposition of [^14C]-Compound 1 and [^14C]-2′-C-methyl guanosine in human primary hepatocytes (incubation medium, cellular extracts, nucleotide levels)
Type: in vitro ADME
Protocol: Primary hepatocytes: Freshly isolated cells from animal and human liver were obtained in suspension on ice. Cells were pelleted by centrifugation at 70-75×g (rat) or 95-90×g (monkey and human) and resuspended at 0.8 million cells per mL of platting medium (William's E supplemented with 5% FBS, 0.5% penicillin-streptomycin, 1% L-glutamine, 4 μg/mL insulin and 1 μM dexamethasone). Multi-well collagen I-coated plates (rat tail collagen type I; 12- or 6-well) were then seeded by addition of 1 mL (12-well; 0.8 million cells/well) or 2 mL (6-well; 1.6 million cells/well) of cell suspension. The plates were gently shaken to evenly distribute the cells and placed in an incubator at 37° C. for approximately 4 to 6 hours to allow cells to attach. Once cells were attached, the platting medium was removed and replaced with hepatocyte culture medium (William's E supplemented with penicillin-streptomycin, 1% L-glutamine, 1% insulin-transferrin-selenium and 0.1 μM dexamethasone). Cells were left overnight in an incubator at 37° C. to acclimatize to culture and the medium.
Hepatocyte incubations with radiolabeled Compound 1 and 2′-C-methyl guanosine, both labeled in the C-8 position of the guanine moiety, were conducted at a final volume of 2.0 mL hepatocyte culture medium/well ([…]). Culture medium from overnight incubation of cells was removed and replaced with fresh medium, pre-warmed to 37° C., containing 1 or 10 μM [^14C]-Compound 1 ([…]) or [^14C]-2′-C-methyl guanosine (127 DPM/μmol) from a stock solution in DMSO (final DMSO concentration was 0.1%) or 50% ethanol (final ethanol concentration was 0.2%). After 1, 4, 8 and 24 hours, 0.5-1.0 mL of incubation medium was removed and stored at −20° C. until analysis (described below). The remaining medium was discarded and cell monolayers were carefully washed two times with ice-cold PBS. Following the last wash, all PBS was carefully removed and 1.0 mL of extraction solution (ice-cold 70% methanol) added. Cells were scrapped off and suspended in the extraction solution, transferred to 2 mL polypropylene microfuge tubes and intracellular contents extracted overnight at −20° C.
Preliminary identification of putative metabolites was conducted by comparing the retention time of observed metabolites in incubation medium and cellular extracts with retention times obtained with chemically synthesized standards using the chromatography conditions described below. Further identification of 2′-C-methyl guanosine nucleotides (mono-, di- and triphosphate) was carried out by incubating cellular extract samples with alkaline phosphatase (10 units for 60 min at 37° C.) and comparing the HPLC retention times of the resulting nucleosides with that of authentic 2′-C-methyl guanosine.
Cellular extracts were prepared by centrifugation at 16,000 RCF using an Eppendorf microcentrifuge (Eppendorf, Model 5415D) for 10 min to remove cellular debris. An aliquot of 5-10 μL of the supernatant was added to 5 mL of EcoLite™ (MP, Irvine, Calif.) liquid scintillation cocktail and radioactivity measured by liquid scintillation counting (LSC) using a Beckman Coulter LS6500 multipurpose liquid scintillation counter (Beckman Instruments, Fullerton, Calif.). The remaining sample was then dried using a Labconco refrigerated centrivap concentrator (Labconco, Kansas City, Mo.). Dry extracts were reconstituted in 120 μL of HPLC-grade water and centrifuged at 16,000 RCF using an Eppendorf microcentrifuge for 10 min. Prior to HPLC analysis (described below), radioactivity of the concentrated extracts was measured by LSC using 5 μL aliquots. Extraction recovery was then determined by comparing total radioactivity in extracts before and after drying. The remaining extract was then analyzed by HPLC with online radioactivity detection using a Flow Scintillation Analyzer Radiomatic™ 515TR. Radioactivity in the separated components was quantified by integrating the peaks using Flo-One™ Software (Perkin Elmer Life Sciences). […]

[1] = human hepatocytes (Hu775), 1 μM [^14C]-Compound 1, 1 h
[2] = human hepatocytes (Hu775), 1 μM [^14C]-Compound 1, 8 h
[3] = human hepatocytes (Hu775), 1 μM [^14C]-Compound 1, 24 h
[4] = human hepatocytes Hu775, 1 μM [^14C]-2′-C-methyl guanosine, 1 h
[5] = human hepatocytes Hu775, 1 μM [^14C]-2′-C-methyl guanosine, 8 h
[6] = human hepatocytes Hu775, 1 μM [^14C]-2′-C-methyl guanosine, 24 h

`C[C@@]1(O)[C@H](O)[C@@H](COP(=O)(O)OP(=O)(O)O)O[C@H]1n1cnc2c(=O)[nH]c(N)nc21` [Compound 6, [(2R)-2-methyl-β-D-ribofuranosyl]guanine 5′-diphosphate] was tested, and the “metabolites observed in cellular extracts (% of total radioactivity)” value (human hepatocytes (Hu759, Hu775), 10 μM [^14C]-2′-C-methyl guanosine, 1 h) was 0.51% and 0.63%, the “metabolites observed in cellular extracts (% of total radioactivity)” value (human hepatocytes (Hu759, Hu775), 10 μM [^14C]-2′-C-methyl guanosine, 4 h) was 1.64% and 2.36% and the “metabolites observed in cellular extracts (% of total radioactivity)” value (human hepatocytes (Hu759, Hu775), 10 μM [^14C]-2′-C-methyl guanosine, 8 h) was 4.54% and 3.46%. The “metabolites observed in cellular extracts (% of total radioactivity)” value (human hepatocytes (Hu759, Hu775), 10 μM [^14C]-2′-C-methyl guanosine, 24 h) was 7.71% and 10.6%, the “metabolites observed in cellular extracts (% of total radioactivity)” value (human hepatocytes (Hu759, Hu775), 10 μM [^14C]-Compound 1, 1 h) was 4.93% and 6.09% and the “metabolites observed in cellular extracts (% of total radioactivity)” value (human hepatocytes (Hu759, Hu775), 10 μM [^14C]-Compound 1, 4 h) was 8.01% and 12.4%. The “metabolites observed in cellular extracts (% of total radioactivity)” value (human hepatocytes (Hu759, Hu775), 10 μM [^14C]-Compound 1, 8 h) was 13.99% and 11.1%, the “metabolites observed in cellular extracts (% of total radioactivity)” value (human hepatocytes (Hu759, Hu775), 10 μM [^14C]-Compound 1, 24 h) was 13.4% and 17.05% and the “2′-C-methyl guanosine nucleotide levels in cellular extracts” value (“2′-C-methyl guanosine nucleotide levels” below) (human hepatocytes (Hu775), 1 μM [^14C]-Compound 1, 0 h) was “BLD (BLD = below limit of detection (0.02 pmol/million cells))”. For the same compound, the “2′-C-methyl guanosine nucleotide levels” value [1] was 1.40 pmol/million cells, the “metabolites observed in cellular extracts (% of total radioactivity)” value [1] was 7.94% and the “2′-C-methyl guanosine nucleotide levels” value [2] was 7.70 pmol/million cells. The “metabolites observed in cellular extracts (% of total radioactivity)” value [2] was 13.0%, the “2′-C-methyl guanosine nucleotide levels” value [3] was 11.2 pmol/million cells and the “metabolites observed in cellular extracts (% of total radioactivity)” value [3] was 12.4%. For the same compound, the “2′-C-methyl guanosine nucleotide levels” value (human hepatocytes Hu759, 10 μM [^14C]-2′-C-methyl guanosine, 0 h) was 0 pmol/million cells, the “2′-C-methyl guanosine nucleotide levels” value (human hepatocytes Hu759, 10 μM [^14C]-2′-C-methyl guanosine, 1 h) was 2.10 pmol/million cells and the “2′-C-methyl guanosine nucleotide levels” value (human hepatocytes Hu759, 10 μM [^14C]-2′-C-methyl guanosine, 4 h) was 7.50 pmol/million cells. For the same compound, the “2′-C-methyl guanosine nucleotide levels” value (human hepatocytes Hu759, 10 μM [^14C]-2′-C-methyl guanosine, 8 h) was 22.1 pmol/million cells, the “2′-C-methyl guanosine nucleotide levels” value (human hepatocytes Hu759, 10 μM [^14C]-2′-C-methyl guanosine, 24 h) was 46.0 pmol/million cells and the “2′-C-methyl guanosine nucleotide levels” value (human hepatocytes Hu759, 10 μM [^14C]-Compound 1, 0 h) was 0 pmol/million cells. The “2′-C-methyl guanosine nucleotide levels” value (human hepatocytes Hu759, 10 μM [^14C]-Compound 1, 1 h) was 3.00 pmol/million cells, the “2′-C-methyl guanosine nucleotide levels” value (human hepatocytes Hu759, 10 μM [^14C]-Compound 1, 4 h) was 21.0 pmol/million cells and the “2′-C-methyl guanosine nucleotide levels” value (human hepatocytes Hu759, 10 μM [^14C]-Compound 1, 8 h) was 45.0 pmol/million cells. The “2′-C-methyl guanosine nucleotide levels” value (human hepatocytes Hu759, 10 μM [^14C]-Compound 1, 24 h) was 69.0 pmol/million cells, the “2′-C-methyl guanosine nucleotide levels” value (human hepatocytes Hu775, 1 μM [^14C]-2′-C-methyl guanosine, 0 h) was “BLD (BLD = below limit of detection (0.02 pmol/million cells))” and the “2′-C-methyl guanosine nucleotide levels” value [4] was “BLD (BLD = below limit of detection (0.02 pmol/million cells))”. The “Major metabolites observed in cellular extracts (% of total radioactivity)” value [4] was “BLD (BLD = below limit of detection (30 DPM))”, the “2′-C-methyl guanosine nucleotide levels” value [5] was 2.70 pmol/million cells and the “Major metabolites observed in cellular extracts (% of total radioactivity)” value [5] was 6.83 % of total radioactivity. The “2′-C-methyl guanosine nucleotide levels” value [6] was 4.00 pmol/million cells, the “Major metabolites observed in cellular extracts (% of total radioactivity)” value [6] was 9.04 % of total radioactivity and the “2′-C-methyl guanosine nucleotide levels” value (human hepatocytes Hu775, 10 μM [^14C]-2′-C-methyl guanosine, 0 h) was 0 pmol/million cells. The “2′-C-methyl guanosine nucleotide levels” value (human hepatocytes Hu775, 10 μM [^14C]-2′-C-methyl guanosine, 1 h) was 2.90 pmol/million cells and the “2′-C-methyl guanosine nucleotide levels” value (human hepatocytes Hu775, 10 μM [^14C]-2′-C-methyl guanosine, 4 h) was 10.5 pmol/million cells.
